This test has as its target human orexin type 2 receptor (hOX2R) (Homo sapiens (Human), UniProt O43614). The test is described as follows: Measurement of orexin type 2 receptor agonist activity (Experimental Example 2-1, FLIPR TETRA, intracellular Ca2+).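 On Emax: Buffer-only well is 0% and 10 nM human orexin B is 100%.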 The following applies: CHO dhfr- cells expressing hOX2R; for pEC50: agonist activity, 10 nM human orexin B = 100%; for Emax at 30 µM: value at 30 uM concentration, orexin B as full agonist = 100%. Type of test: cell-based. From the text: To obtain a cell clone stably expressing human orexin type 2 receptor, human orexin type 2 receptor cDNA was inserted into pcDNA3.1(+) plasmid vector (Invitrogen), and a plasmid DNA for expression of human orexin type 2 receptor (pcDNA3.1(+)/hOX2R) was cloned. The plasmid DNA was introduced into CHO-dhfr cell by an electroporation method, and human orexin type 2 receptor expressing clone cells were obtained by limiting dilution method by using G418 drug resistance as a selection marker.
Chinese hamster ovary (CHO) dhfr-cells forcibly expressing human orexin type 2 receptor (hOX2R) were seeded in each well of Black clear bottom plate (384 wells) (Becton, Dickinson and Company) by 10,000 cells, and cultured for 16 hr in an MEM-alpha (Nikken-Bio Co., Ltd.) medium containing 100 U/ml penicillin, 100 μg/ml streptomycin, […] G418 (all above Invitrogen), and 10% fetal calf serum (Thermo), under the conditions of 37° C., 5% CO2. […] A test compound was dissolved in dimethyl sulfoxide to 10 mM, and then diluted with assay buffer 2 (20 mM HEPES, Hanks' balanced salt solution (Invitrogen), 0.1% bovine serum albumin). For the reaction, a test compound solution (10 μL) was added using Fluorescent Imaging Plate Reader TETRA (FLIPR TETRA; manufactured by Molecular Devices), a fluorescence value (excitation wavelength 488 nm, measurement wavelength 570 nm) of each well was measured every one second for 1 min, and the agonist activity was determined using the area of the fluorescence value as an indicator of intracellular Ca^2+ concentration.

For orientation: pEC50 means the EC50 on a negative log10 scale, so that one unit is a factor of ten. A lower pEC50 goes with a large EC50. As a reminder, the Emax is the greatest response seen or fitted, relative to the assay's reference.

The structures appear in SMILES notation. pEC50: −log10 of the molar value.

Sequence of human orexin type 2 receptor (hOX2R) (O43614 whole entry): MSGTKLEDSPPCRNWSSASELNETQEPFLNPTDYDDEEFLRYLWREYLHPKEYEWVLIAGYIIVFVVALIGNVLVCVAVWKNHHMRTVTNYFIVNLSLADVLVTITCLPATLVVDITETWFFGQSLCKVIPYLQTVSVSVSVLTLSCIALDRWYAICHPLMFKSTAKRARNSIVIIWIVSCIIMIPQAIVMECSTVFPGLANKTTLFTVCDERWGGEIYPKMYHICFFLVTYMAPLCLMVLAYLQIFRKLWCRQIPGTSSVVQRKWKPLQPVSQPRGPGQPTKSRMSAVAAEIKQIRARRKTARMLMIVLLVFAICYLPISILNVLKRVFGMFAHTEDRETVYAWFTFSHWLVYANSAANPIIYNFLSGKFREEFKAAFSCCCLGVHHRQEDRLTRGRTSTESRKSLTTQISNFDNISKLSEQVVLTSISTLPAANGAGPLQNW

On to `CCCS(=O)(=O)N[C@H]1CCCN(C(C)=O)[C@H]1CO[C@H]1CC[C@@H](C(C)C)CC1` (relative stereo) [Example 77, N-(cis-1-acetyl-2-(((cis-4-isopropylcyclohexyl)oxy)methyl)piperidin-3-yl)propane-1-sulfonamide], for which the pEC50 is 6.00 and the Emax at 30 µM was 91%. For `CC(=O)N1CCC[C@H](NS(=O)(=O)N(C)C)[C@@H]1CO[C@H]1CC[C@@H](C(C)C)CC1` (relative stereo) [Example 78, N′-(cis-1-acetyl-2-(((cis-4-isopropylcyclohexyl)oxy)methyl)piperidin-3-yl)-N,N-dimethylsulfuric diamide] the same measures were 7.20 and 91%. In the same order, the values of `CCNS(=O)(=O)N[C@H]1CCCN(C(C)=O)[C@H]1CO[C@H]1CC[C@@H](C(C)C)CC1` (relative stereo) [Example 79, N-(cis-1-acetyl-2-(((cis-4-isopropylcyclohexyl)oxy)methyl)piperidin-3-yl)-N′-ethylsulfuric diamide] are 6.48 and 85%. In the same order, the values of `CC(=O)N1CCC[C@H](NS(=O)(=O)C(F)(F)F)[C@@H]1CO[C@H]1CC[C@@H](C(C)C)CC1` (relative stereo) [Example 80, N-(cis-1-acetyl-2-(((cis-4-isopropylcyclohexyl)oxy)methyl)piperidin-3-yl)-1,1,1-trifluoromethanesulfonamide] are 6.18 and 98%.

In turn, `CC(C)[C@H]1CC[C@@H](OC[C@H]2[C@@H](NS(C)(=O)=O)CCCN2C(=O)C2CN(S(C)(=O)=O)C2)CC1` (relative stereo) [Example 90, N-(cis-2-(((cis-4-isopropylcyclohexyl)oxy)methyl)-1-((1-(methylsulfonyl)azetidin-3-yl)carbonyl)piperidin-3-yl)methanesulfonamide] gave a pEC50 of 5.55 and an Emax at 30 µM of 74%. In turn, `CC(C)[C@H]1CC[C@@H](OC[C@H]2[C@@H](NS(C)(=O)=O)CCCN2C(=O)Cn2cnccc2=O)CC1` (relative stereo) [Example 93, N-(cis-2-(((cis-4-isopropylcyclohexyl)oxy)methyl)-1-((6-oxopyrimidin-1(6H)-yl)acetyl)piperidin-3-yl)methanesulfonamide] showed a pEC50 of 5.64 and an Emax at 30 µM of 84%.

Regarding `CC(=O)N1CCC[C@H](NS(C)(=O)=O)[C@@H]1CO[C@H]1CC[C@@H](C(C)(C)F)CC1` (relative stereo) [Example 95, N-(cis-1-acetyl-2-(((cis-4-(2-fluoropropan-2-yl)cyclohexyl)oxy)methyl)piperidin-3-yl)methanesulfonamide], the pEC50 was 5.37 and the Emax at 30 µM was found to be 89%. For `COCCNC(=O)N1CCC[C@H](NS(C)(=O)=O)[C@@H]1CO[C@H]1CC[C@@H](C(C)C)CC1` (relative stereo) [Example 96, cis-2-(((cis-4-isopropylcyclohexyl)oxy)methyl)-N-(2-methoxyethyl)-3-((methylsulfonyl)amino)piperidine-1-carboxamide] the same measures were 7.59 and 95%. In the same order, the values of `CC(C)[C@H]1CC[C@@H](OC[C@H]2[C@@H](NS(C)(=O)=O)CCCN2C(=O)NCCO)CC1` (relative stereo) [Example 97, cis-N-(2-hydroxyethyl)-2-(((cis-4-isopropylcyclohexyl)oxy)methyl)-3-((methylsulfonyl)amino)piperidine-1-carboxamide] are 8.35 and 108%. In turn, `CC(C)[C@H]1CC[C@@H](OC[C@H]2[C@@H](NS(C)(=O)=O)CCCN2C(=O)NCC(F)(F)F)CC1` (relative stereo) [Example 98, cis-2-(((cis-4-isopropylcyclohexyl)oxy)methyl)-3-((methylsulfonyl)amino)-N-(2,2,2-trifluoroethyl)piperidine-1-carboxamide] registered a maximal response (Emax) at 30 µM of 107%. In turn, `CC(C)[C@H]1CC[C@@H](OC[C@H]2[C@@H](NS(C)(=O)=O)CCCN2C(=O)NC2CC2)CC1` (relative stereo) [Example 99, cis-N-cyclopropyl-2-(((cis-4-isopropylcyclohexyl)oxy)methyl)-3-((methylsulfonyl)amino)piperidine-1-carboxamide] had a negative-log EC50 (pEC50) of 7.89 and an Emax at 30 µM of 112%. The compound `CCCNC(=O)N1CCC[C@H](NS(C)(=O)=O)[C@@H]1CO[C@H]1CC[C@@H](C(C)C)CC1` (relative stereo) [Example 100, cis-2-(((cis-4-isopropylcyclohexyl)oxy)methyl)-3-((methylsulfonyl)amino)-N-propylpiperidine-1-carboxamide] had a pEC50 of 8.66 and an Emax at 30 µM of 112%. In turn, `CC(C)NC(=O)N1CCC[C@H](NS(C)(=O)=O)[C@@H]1CO[C@H]1CC[C@@H](C(C)C)CC1` (relative stereo) [Example 101, cis-N-isopropyl-2-(((cis-4-isopropylcyclohexyl)oxy)methyl)-3-((methylsulfonyl)amino)piperidine-1-carboxamide] had a negative-log EC50 (pEC50) of 8.64 and an Emax at 30 µM of 115%. In turn, `CC(=O)N1CCC[C@H](NS(C)(=O)=O)[C@@H]1CO[C@H]1CC[C@@H](C(F)(F)F)CC1` (relative stereo) [Example 106, N-(cis-1-acetyl-2-(((cis-4-(trifluoromethyl)cyclohexyl)oxy)methyl)piperidin-3-yl)methanesulfonamide] gave a pEC50 of 5.32 and an Emax at 30 µM of 89%. For `CCNC(=O)N1CCC[C@H](NS(C)(=O)=O)[C@@H]1CO[C@H]1CC[C@@H](C(F)(F)F)CC1` (relative stereo) [Example 107, cis-N-ethyl-3-((methylsulfonyl)amino)-2-(((cis-4-(trifluoromethyl)cyclohexyl)oxy)methyl)piperidine-1-carboxamide] the same measures were 6.92 and 75%.

Consider `CN(C)S(=O)(=O)N[C@H]1CCCN[C@H]1CO[C@H]1CC[C@@H](c2ccccc2)CC1` (relative stereo) [Example 109, N,N-dimethyl-N′-(cis-2-(((cis-4-phenylcyclohexyl)oxy)methyl)piperidin-3-yl)sulfuric diamide], for which the pEC50 was 6.32 and the maximum response (Emax) at 30 µM is 102%. In the same order, the values of `CC(=O)N1CCC[C@H](NS(=O)(=O)N(C)C)[C@@H]1CO[C@H]1CC[C@@H](c2ccccc2)CC1` (relative stereo) [Example 111, N′-(cis-1-acetyl-2-(((cis-4-phenylcyclohexyl)oxy)methyl)piperidin-3-yl)-N,N-dimethylsulfuric diamide] are 7.89 and 97%. For `CC(=O)N1CCC[C@H](NS(C)(=O)=O)[C@@H]1CO[C@H]1CC[C@@H](c2ccc(F)cc2)CC1` (relative stereo) [Example 112, N-(cis-1-acetyl-2-(((cis-4-(4-fluorophenyl)cyclohexyl)oxy)methyl)piperidin-3-yl)methanesulfonamide] the same measures were 6.38 and 94%.

For `CCNC(=O)N1CCC[C@H](NS(C)(=O)=O)[C@@H]1CO[C@H]1C[C@@H](c2ccccc2)C1` (relative stereo) [Example 113, cis-N-ethyl-3-((methylsulfonyl)amino)-2-(((cis-3-phenylcyclobutyl)oxy)methyl)piperidine-1-carboxamide], the pEC50 is 7.23 and the Emax at 30 µM was found to be 93%.

In the case of `CC(=O)N1CCC[C@H](NS(C)(=O)=O)[C@@H]1CO[C@H]1C[C@@H](c2ccccc2)C1` (relative stereo) [Example 114, N-(cis-1-acetyl-2-(((cis-3-phenylcyclobutyl)oxy)methyl)-piperidin-3-yl)methanesulfonamidea], the pEC50 is 5.46 and the Emax at 30 µM was 79%.

With `CS(=O)(=O)N[C@H]1CCCN[C@H]1CO[C@H]1CC[C@@H](c2ccccc2F)CC1` (relative stereo) [Example 115, N-(cis-2-(((cis-4-(2-fluorophenyl)cyclohexyl)oxy)methyl)piperidin-3-yl)methanesulfonamide], the pEC50 was 6.11 and the Emax at 30 µM turned out to be 97%. For `CCNC(=O)N1CCC[C@H](NS(C)(=O)=O)[C@@H]1CO[C@H]1CC[C@@H](c2ccccc2F)CC1` (relative stereo) [Example 117, cis-N-ethyl-2-(((cis-4-(2-fluorophenyl)cyclohexyl)oxy)-methyl)-3-((methylsulfonyl)amino)piperidine-1-carboxamide] the same measures were 9.92 and 91%.

Turning to `CCNC(=O)N1CCC[C@H](NS(C)(=O)=O)[C@@H]1COC1CCN(c2ncccn2)CC1` (relative stereo) [Example 118, cis-N-ethyl-3-((methylsulfonyl)amino)-2-(((1-(pyrimidin-2-yl)piperidin-4-yl)oxy)methyl)piperidine-1-carboxamide], the pEC50 is 8.34 and the Emax at 30 µM was found to be 105%.

(Values after patent publication US10287305B2, “Substituted piperidine compound and use thereof” (Takeda Pharmaceutical Company Limited, priority 2016, dated 2019).)
